Results as given in US11891374B2, “Derivatized benzimidazole compounds, their salts, their complexes, their pharmaceutical compositions and methods for using them for antigeriatric actions” (priority 2020, dated 2024).

How the values were obtained:
[1] = test system: imidazoline receptors of all subtypes; conditions: cited from earlier work
Drosophila fruit flies = conditions: in vivo

Compound	concentration range of binding to imidazoline receptors [1]	MLS (day) Females (Drosophila fruit flies)	MLS (day) Males (Drosophila fruit flies)	extension of lifespan / MLS versus control (Drosophila fruit flies)	lifespan of Drosophila extended to (Drosophila fruit flies)
N=C(N)NCCCCN [Agmatine, N-(4-aminobutyl)guanidine]	0.5 to 5 mM				
Cc1cc(C)c2c(c1)nc(Cn1c3ccccc3c(=O)c3ccccc31)n2C [XVg]		67 ± 9 days	66 ± 9 days	~3 fold	70 days
